Experimental findings from patent publication US6656499B1, “Composition for transdermal and dermal administration of interferon-α” (PharmaDerm Laboratories, Ltd., priority 1999, dated 2003) are described below.

A short description of series [1]: In vitro diffusion of IFN-α into human skin, flow-through diffusion cells, antiviral bioassay of skin homogenate. The following applies: Biphasic lipid vesicles + acylated amino acid + IFN-α, 24 hours, n = 4.
The conditions of series [2]: guinea pigs, lipid vesicle patch 24 hours, FIG. 1A, vs untreated control animals.
Another series relates to 2-5A synthetase. The experiment in a line: 2-5A synthetase enzyme activity in PBMC of treated human subjects. The series is classed as in vivo. The conditions noted are these: all three treatment groups compared to their untreated controls (p<0.05). How it is done:
The experimental protocol is set forth in Example 5C.
Induction of 2-5A synthetase enzyme activity in peripheral blood mononuclear cells (PBMC) was used as an indication for the systemic delivery of IFN-α from biphasic delivery systems.
2-5A synthetase was determined by a ^125I-2-5A radioimmuno assay kit (Eiken Chemical Corp., Tokyo, Japan) using rabbit anti-human 2-5A antibody and goat antirabbit IgG as secondary antibody. Briefly, 2-5A synthetase was extracted from the samples by poly (I) poly (C) agarose for 10 min. After the addition of ATP solution (24 μg/mL) and incubation, 100 μL ^125I-2-5A was added, followed by the primary and secondary antibody. Radioactivity bound was determined by gamma counting. 2-5A synthetase is measured as pmol 2-5A produced/100 mL/h and subsequently expressed as nmole enzyme/mg protein 1 h in skin homogenate. All samples were run in duplicates.

Series [3] can be described thus: Immunohistochemistry of skin biopsies with anti-IFN-α antibodies. The class given is in vivo, human. The following applies: 40 MU group, treated skin site vs untreated skin. An excerpt:
The skin biopsy taken from the site of application of the biphasic lipid vesicle-containing transdermal patch of each test subject was processed for immunohistochemistry. A skin sample from a representative individual in the treatment group receiving 40 MU IFN-α was compared visually to a skin section of control, untreated skin after staining both samples with anti-IFN-α antibodies. […] This staining pattern was characteristic in all volunteers in this treatment group.
Sections 5 μm in thickness were cut and after antigen retrieval with 10 mM Na-citrate the sections were incubated with mouse anti-human interferon alpha antibody (1:2,000-1:5,000), which were in turn treated with a biotinylated rabbit anti-mouse secondary antibody and stained by the Avidin Biotin Complex (ABC) method.

For series [4], the system named is Ki67 nuclear protein in proliferating cells. The experiment in a line: Anti-proliferation assay on skin sections of human volunteers (Ki67 staining). The series is classed as in vivo. The following applies: for Average % decrease of proliferative cells stained by anti-Ki67 antibody: 48 hours. An excerpt:
Skin sections were also stained for Ki67 nuclear protein in proliferating cells using anti-M1B1 monoclonal antibodies (Rose et al., J. Clin. Pathol., 47:1010 (1994)) and visualized.
The number of stained cells were counted before and after treatment sections. The decreased number of stained cells were expressed as a percentage.

Series [5] can be described thus: Antiviral activity in serum of human subjects after transdermal patch. The following applies: individual subjects in each treatment group (5, 15, 40 MU), before vs after 48 hours patch, FIGS. 4A-4C.
For series [6] the following is noted: human, in vivo.
Protocol: The human subjects were divided randomly into three groups for treatment with a transdermal patch containing a lipid vesicle compositions at one of the three IFN-α concentrations. […] After treatment with the placebo, skin biopsies and blood samples were collected from each subject. In Phase II of the study, each subject was treated with a transdermal patch containing IFN-α entrapped in biphasic lipid vesicles at one of the three concentrations: 5 MU/g formulation/patch, 15 MU/g formulation/patch or 40 MU/g formulation/patch. After treatment for 48 hours, skin biopsies and blood samples were taken and analyzed. The biopsy samples were analyzed by immunohistochemistry, antiviral assay, ELISA and 2-5A synthetase assays. The blood samples were used to prepare serum for the antiviral and ELISA assays and to extract peripheral blood mononuclear cells for the 2-5A synthetase assay.
To determine IFN-α concentration in skin homogenates, Cytoscreen™ ELISA kit (Medicorp, Montreal, PQ) was used. The sensitivity of the assay is <25 pg/mL and the range of concentration is 0-500 pg/mL. The assay is specific for human IFN-α with no cross-reactivity with human IFNβ, IFNγ or IFNω. The results are expressed as pg IFN-α/mg skin.
Seventeen human volunteers were randomized into three treatment groups. […]

In the case of `CCCCCCCCCCCC(=O)NCCCC[C@H](N)C(=O)O` [MLL, Lauroyl lysine], the “Average Amount of IFN-α in skin” value in series [1] came out at 250 ± 112 U/mg protein.

On to `CCCCCCCC(=O)N[C@H](C(=O)OC)[C@@H](C)O` [PDM1, N-capryloyl-L-threonine methyl ester], for which, in series [1], the “Average Amount of IFN-α in skin” value is 290 ± 172 U/mg protein.

As for `CCCCCCCCCCCCCCCCCCCC(=O)N[C@@H](CO)C(=O)O` [PDM3, N-eicosanoyl-L-serine], the “Average Amount of IFN-α in skin” value in series [1] was 2022 ± 1046 U/mg protein. Further, the “serum antiviral activity / transdermal skin penetration (in words)” value in series [2] is on record as “significant increase”.

Regarding `CCCCCCCCCCCCCCCCCCCC(=O)N[C@H](C(=O)O)[C@@H](C)O` [PDM4, N-eicosanoyl threonine], in series [1], the “Average Amount of IFN-α in skin” value amounted to 1707 ± 538 U/mg protein.

In the case of `CCCCCCCCCCCCCCCC(=O)N[C@@H](CCCCNC(=O)CCCCCCCCCCC)C(=O)OC` [PDM17, Nα-palmitoyl-Nε Lauroyl-L- lysine methyl ester], the “Average Amount of IFN-α in skin” value in series [1] is reported as 540 ± 239 U/mg protein.

In the case of `CCCCCCCCCCCC(=O)NCCCC[C@H](NC(=O)CCCCCCCCCCC)C(=O)OC` [PDM18, Nα lauroyl-Nε Lauroyl-L- lysine methyl ester], the “Average Amount of IFN-α in skin” value in series [1] amounted to 84 ± 52 U/mg protein.

In the case of IFN-α, in the series on 2-5A synthetase, the “induction in 2-5A synthetase enzyme activity (in words)” value is on record as “significant induction”. In series [3], the “IFN-α specific immunostaining of skin section (in words)” value was “IFN-α specific immunostaining throughout the stratum corneum, epidermis and dermis”. Besides, the “Average % decrease of proliferative cells stained by anti-Ki67 antibody” value in series [4] (Dose 5 MU, compared to placebo treated skin) is given as 14%; in series [4] (Dose 15 MU, compared to placebo treated skin), 10%; in series [4] (Dose 40 MU, compared to untreated skin), 38%. Besides, the anti-proliferative ratio worked out at 1.21 in series [4] (Dose 5 MU, proliferating cells in placebo treated skin / after treatment); 1.32 in series [4] (Dose 15 MU, proliferating cells in placebo treated skin / after treatment); 2 in series [4] (Dose 40 MU, proliferating cells in untreated skin / after treatment). In addition, the “Ki67 staining of skin sections, anti-proliferative effect (in words)” value in series [4] (skin treated with IFN-α) was “decreased staining”. Moreover, in series [5], the “serum antiviral activity (in words)” value was “significant increase”. Also, in series [6], the “further increase in IFN-α levels in skin homogenates (in words)” value is on record as “No significant further increase”. In addition, in series [6], the “increase in IFN-α levels in post-treatment skin homogenates (ELISA)” value worked out at 3 fold.
